Results reported in patent publication US8222218B2, “Cyclopropanated carbohydrates” (Seton Hall University, priority 2008, dated 2012).
Read-outs that look alike come from different tables or passages of the source.

What was measured:
[1] = test system: metabotropic glutamate receptors; details: background; cited from earlier work
[2] = background, previously made and tested; cited from earlier work
[3] = Acute toxicity, minimal motor impairment (rotorod), mice; assay type: in vivo; details: mice, rotorod
Outline: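 Mice placed on a rod rotating at 6 rpm; a compound is scored toxic when the animal falls off three times within 1 min. In rats, minimal motor deficit is scored as ataxia, an abnormal uncoordinated gait.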

MES-induced seizures = assay: Maximal Electroshock Seizure (MES) test, mice; assay type: in vivo; details: Mus musculus, ip, mice, i.p.
Outline: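 Seizures were induced by a 60 Hz corneal current for 2 s (50 mA in CF1 mice, 150 mA in Sprague-Dawley rats). Mice received 30, 100 or 300 mg/kg i.p. in 0.5% methylcellulose and were tested at several intervals; rats received 30 mg/kg p.o. Protection means abolition of hind-limb tonic extension.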

[4] = test system: metrazole-induced clonic seizures; assay: Subcutaneous Metrazole Seizure Threshold Test (scMET), mice; assay type: in vivo; details: Mus musculus, sc, mice
Outline: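 CF1 mice dosed with test compound at 30, 100 and 300 mg/kg; Sprague-Dawley rats at 50 mg/kg p.o. At compound TPE, metrazole at CD97 (85 mg/kg in mice) injected s.c. in the neck. Animals observed 30 min; endpoint is a 3-5 s clonic spasm episode.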

[5] = molecular target: T1, cloned, human D1 receptor (Homo sapiens, UniProt P21728); assay: Radioligand competition binding assay, [3H]SCH23390
T1 construct: expressed in transfected cells
Source text: Receptor binding profiles were provided by the National Institute of Mental Health's Psychoactive Drug Screening Program, Contract # N01 MH32004 (NIMH PDSP) The NIMH PDSP is directed by Bryan L. Roth M. D., Ph.D. at the University of North Carolina at Chapel Hill and Project Officer Jamie Driscol at NIMH, Bethesda Md., USA. Protocols for receptor-based assays by the PDSP may be found on the website: http://pdsp.med.unc.edu/pdspw/binding.php and http://pdsp.med.unc.edu/pdspw/function.php (Apr. 30, 2008).
Radioligand competition binding assays were performed as previously described (Rothman, R. B., Baumann, M. H., Savage, J. E., Rauser, L., McBride, Hufeisen, S. J., Roth B. L. Circulation (2000) 102:2836-2841) for Compounds 7 and 16. Briefly, test compounds were dissolved to 10 mM in 100% DMSO, then diluted to the desired concentrations (spanning seven orders of magnitude) in Dopamine Binding Buffer (50 mM NaCl, 50 mM HEPES, 5 mM MgCl2, 0.5 mM EDTA, pH 7.4). Diluted test and reference compounds were added to wells containing radioligand ([^3H]SCH23390, 0.3 nM final concentration) and buffer, then membrane fractions from cells stably expressing cloned, human D1 or D5 receptors were added and binding was allowed to equilibrate at room temperature for 1.5 hours. At equilibrium, reactions were filtered (using a FilterMate 96-well harvester, PerkinElmer) onto GF-A glass fiber filters (Wallac) and allowed to dry. Meltilex scintillant (Wallac) was melted onto the dry filters, and then allowed to cool. Filters were then sealed in plastic bags and counted on a Wallac TriLux microbeta counter.
Raw data (dpm) representing total radioligand binding (i.e., specific+non-specific binding) were plotted as a function of the logarithm of the molar concentration of the competitor (i.e., test or reference compound). Non-linear regression of the normalized (i.e., percent radioligand binding compared to that observed in the absence of test or reference compound) raw data is performed in Prism 4.0 (GraphPad Software) using the built-in three parameter logistic model describing ligand competition binding to radioligand-labeled sites: y=bottom+[(top−bottom)/(1+10^x−logIC50)] where bottom equals the residual radioligand binding measured in the presence of 10 μM reference compound (i.e., non-specific binding) and top equals the total radioligand binding observed in the absence of competitor. The log IC50 (i.e., the log of the ligand concentration that reduces radioligand binding by 50%) is thus estimated from the data and used to obtain the Ki by applying the Cheng-Prusoff approximation: Ki=IC50/(1+[ligand]/KD) where [ligand] equals the assay radioligand concentration and KD equals the affinity constant of the radioligand for the target receptor.

T1 sequence (P21728 whole entry): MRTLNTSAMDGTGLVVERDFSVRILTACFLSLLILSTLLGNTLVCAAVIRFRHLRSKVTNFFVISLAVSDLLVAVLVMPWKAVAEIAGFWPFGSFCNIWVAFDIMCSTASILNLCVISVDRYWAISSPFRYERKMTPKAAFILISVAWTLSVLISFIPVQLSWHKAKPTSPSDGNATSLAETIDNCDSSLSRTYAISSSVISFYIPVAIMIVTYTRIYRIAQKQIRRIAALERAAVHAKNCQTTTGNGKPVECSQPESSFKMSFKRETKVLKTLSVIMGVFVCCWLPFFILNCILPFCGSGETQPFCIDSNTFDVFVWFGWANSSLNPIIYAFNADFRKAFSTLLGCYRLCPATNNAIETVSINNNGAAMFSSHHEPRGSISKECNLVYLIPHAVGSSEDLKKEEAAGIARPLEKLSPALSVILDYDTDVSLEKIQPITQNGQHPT

7-(hydroxyimino)cyclopropa[b]chromen-1a-carboxylate [Compound C]
agonist activity at metabotropic glutamate receptors [1]: active agonists

CNS(=O)(=O)OC[C@@]12OC[C@H]3OC(C)(C)O[C@H]3[C@@H]1OC(C)(C)O2 [A]
anticonvulsant activity [2]: moderate anticonvulsant activity

CC1(C)OC[C@@H]2O[C@@]3(COS(N)(=O)=O)OC(C)(C)O[C@H]3[C@@H]2O1 [B]
anticonvulsant activity [2]: moderate anticonvulsant activity

CCOC(=O)C1[C@H]2O[C@@H]3COC(C)(C)O[C@H]3C(=NO)[C@@H]12 (stereo partly drawn) [Compound 7, ethyl (4aR,5aS,6aR,7aS)-7-(hydroxyimino)-2,2-dimethylhexahydro-4H-cyclopropa[5,6]pyrano[3,2-d][1,3]dioxine-6-carboxylate]
TOX 30 0.5 h (animals toxic/tested) ([3]; 30 mg/kg, 0.5 h): 0/4 | TOX 30 4 h (animals toxic/tested) ([3]; 30 mg/kg, 4 h): 0/2 | TOX 100 0.5 h (animals toxic/tested) ([3]; 100 mg/kg, 0.5 h): 1/8 | TOX 100 4 h (animals toxic/tested) ([3]; 100 mg/kg, 4 h): 0/4 | TOX 300 0.5 h (animals toxic/tested) ([3]; 300 mg/kg, 0.5 h): 3/4 | TOX 300 4 h (animals toxic/tested) ([3]; 300 mg/kg, 4 h): 1/2 | responders at 30 mg/kg (MES-induced seizures; 0.5 h, read-out: MES 30 0.5 h (animals protected/tested)): 0% | responders at 30 mg/kg (MES-induced seizures; 4 h, read-out: MES 30 4 h (animals protected/tested)): 0% | responders at 100 mg/kg (MES-induced seizures; 0.5 h, read-out: MES 100 0.5 h (animals protected/tested)): 0% | responders at 100 mg/kg (MES-induced seizures; 4 h, read-out: MES 100 4 h (animals protected/tested)): 0% | responders at 300 mg/kg (MES-induced seizures; 0.5 h, read-out: MES 300 0.5 h (animals protected/tested)): 0% | responders at 300 mg/kg (MES-induced seizures; 4 h, read-out: MES 300 4 h (animals protected/tested)): 0% | responders at 30 mg/kg ([4]; 0.4 h, read-out: scMET 30 0.4 h (animals protected/tested)): 0% | responders at 30 mg/kg ([4]; 0.5 h, read-out: scMET 30 0.5 h (animals protected/tested)): 0% | responders at 100 mg/kg ([4]; 0.4 h, read-out: scMET 100 0.4 h (animals protected/tested)): 0% | responders at 100 mg/kg ([4]; 0.5 h, read-out: scMET 100 0.5 h (animals protected/tested)): 0% | responders at 300 mg/kg ([4]; 0.4 h, read-out: scMET 300 0.4 h (animals protected/tested)): 0% | responders at 300 mg/kg ([4]; 0.5 h, read-out: scMET 300 0.5 h (animals protected/tested)): 0% | Ki ([5]; D1 dopamine receptor, [3H]SCH23390 0.3 nM, Cheng-Prusoff): 6.23 µM | inhibition of the D1 dopamine receptor ([5]; radioligand competition binding): significant inhibition

CC1(C)O[C@@H]2[C@@H](CO[C@@]3(COS(N)(=O)=O)OC(C)(C)O[C@@H]23)O1 [topiramate]
anticonvulsant activity [2]: greater anticonvulsant activity
